# Assay results as given in BindingDB's records for patent US20250171447 (Merck Sharp & Dohme, 2025).
# Tests used:
# [1] = target: Adenosine receptor A2a (Homo sapiens, UniProt P29274); test: A2A Binding Affinity Using SPA
# [2] = target: T1, Adenosine receptor A2b (Homo sapiens, UniProt P29275); test: A2B Binding Affinity Assay
# T1 sequence (P29275 whole entry): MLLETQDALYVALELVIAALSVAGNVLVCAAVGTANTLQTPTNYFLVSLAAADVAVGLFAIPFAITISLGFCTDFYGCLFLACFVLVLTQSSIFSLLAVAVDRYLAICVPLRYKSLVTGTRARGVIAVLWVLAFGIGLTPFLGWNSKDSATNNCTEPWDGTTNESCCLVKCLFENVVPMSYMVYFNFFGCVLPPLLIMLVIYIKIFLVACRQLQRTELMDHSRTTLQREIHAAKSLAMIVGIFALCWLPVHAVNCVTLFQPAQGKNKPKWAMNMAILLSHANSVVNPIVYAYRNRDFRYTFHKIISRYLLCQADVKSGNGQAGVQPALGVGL
# Adenosine receptor A2a, sequence (P29274 whole entry): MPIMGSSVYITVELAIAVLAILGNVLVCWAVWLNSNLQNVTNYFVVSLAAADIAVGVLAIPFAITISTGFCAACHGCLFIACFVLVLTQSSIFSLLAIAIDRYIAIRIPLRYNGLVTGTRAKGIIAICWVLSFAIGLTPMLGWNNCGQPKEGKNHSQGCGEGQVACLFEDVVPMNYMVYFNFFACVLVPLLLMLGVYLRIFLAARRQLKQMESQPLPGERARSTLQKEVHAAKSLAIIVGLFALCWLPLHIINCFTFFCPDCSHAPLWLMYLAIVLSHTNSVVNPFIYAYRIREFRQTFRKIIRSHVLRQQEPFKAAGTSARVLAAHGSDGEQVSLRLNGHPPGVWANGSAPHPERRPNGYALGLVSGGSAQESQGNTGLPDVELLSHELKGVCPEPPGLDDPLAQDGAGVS
IC50 [1],IC50 [2],Structure (SMILES)
3.5 nM,45 nM,"COc1cc(F)cc2c1nc(N)n1nc(C3CC3(F)c3ccccc3)nc21 (centres undefined) [US20250171447, Ex-29]"
44.2 nM,27.3 nM,"COc1cc(F)cc2c1nc(N)n1nc(C3CC3c3ccc(F)cc3)nc21 (centres undefined) [US20250171447, Ex-31]"
377 nM,601 nM,"COc1cc(F)cc2c1nc(N)n1nc(C3CC3(F)c3ccccc3)nc21 (centres undefined) [US20250171447, Ex-32]"
472 nM,62.4 nM,"COc1cc(F)cc2c1nc(N)n1nc(C3CC3(F)c3ccccc3)nc21 (centres undefined) [US20250171447, Ex-33]"
7.3 nM,105 nM,"COc1cccc2c1nc(N)n1nc(C3CC3CO)nc21 (centres undefined) [US20250171447, Ex-35]"
20.5 nM,805 nM,"COc1cccc2c1nc(N)n1nc(C3CC3CO)nc21 (centres undefined) [US20250171447, Ex-36]"
0.6 nM,71.9 nM,"COc1cc(F)cc2c1nc(N)n1nc(C3CC3(F)c3ccccc3)nc21 (centres undefined) [US20250171447, Ex-39]"
2.4 nM,,"COc1cc(F)cc2c1nc(N)n1nc([C@H]3C[C@H](c4ccc(C(C)(C)O)cn4)C3)nc21 [US20250171447, Ex-44]"
1.6 nM,6.2 nM,"COc1cc(F)cc2c1nc(N)n1nc([C@H]3C[C@@H](c4ccc(C(C)(C)O)cn4)C3)nc21 [US20250171447, Ex-45]"
8.8 nM,,"COc1cccc2c1nc(N)n1nc([C@H]3C[C@H](c4ccc(C(C)(C)O)nc4)C3)nc21 [US20250171447, Ex-53]"
1.1 nM,6.9 nM,"COc1cccc2c1nc(N)n1nc([C@H]3C[C@@H](c4ccc(C(C)(C)O)nc4)C3)nc21 [US20250171447, Ex-54]"
15.5 nM,,"COc1ccc2c(c1)nc(N)n1nc([C@H]3C[C@@H](c4ccc(CC(C)(C)O)cn4)C3)nc21 [US20250171447, Ex-55]"
17.8 nM,,"COc1ccc2c(c1)nc(N)n1nc([C@H]3C[C@H](c4ccc(CC(C)(C)O)cn4)C3)nc21 [US20250171447, Ex-56]"
47.4 nM,,"COc1ccc2c(c1)nc(N)n1nc([C@H]3C[C@@H](c4cnc(C(C)(C)O)cn4)C3)nc21 [US20250171447, Ex-57]"
136 nM,,"COc1ccc2c(c1)nc(N)n1nc([C@H]3C[C@H](c4cnc(C(C)(C)O)cn4)C3)nc21 [US20250171447, Ex-58]"
5.7 nM,,"COc1ccc2c(c1)nc(N)n1nc([C@H]3C[C@@H](c4ccc(C(C)(C)O)cn4)C3)nc21 [US20250171447, Ex-59]"

IC50 [1],IC50 [2],Structure (SMILES)
7.9 nM,,"COc1ccc2c(c1)nc(N)n1nc([C@H]3C[C@H](c4ccc(C(C)(C)O)cn4)C3)nc21 [US20250171447, Ex-60]"
42.6 nM,,"COc1ccc2c(c1)nc(N)n1nc([C@H]3C[C@H](c4ncc(C(C)(C)O)cn4)C3)nc21 [US20250171447, Ex-61]"
107 nM,,"COc1ccc2c(c1)nc(N)n1nc([C@H]3C[C@@H](c4ncc(C(C)(C)O)cn4)C3)nc21 [US20250171447, Ex-62]"
7 nM,0.4 nM,"CC(C)(O)c1ccc([C@H]2C[C@@H](c3nc4c5cc(F)cc(F)c5nc(N)n4n3)C2)nc1 [US20250171447, Ex-63]"
16 nM,1.7 nM,"CC(C)(O)c1ccc([C@H]2C[C@H](c3nc4c5cc(F)cc(F)c5nc(N)n4n3)C2)nc1 [US20250171447, Ex-64]"
2.1 nM,,"COc1cccc2c1nc(N)n1nc([C@H]3C[C@@H](c4ccc(CC(C)(C)O)cn4)C3)nc21 [US20250171447, Ex-65]"
2 nM,,"COc1cccc2c1nc(N)n1nc([C@H]3C[C@H](c4ccc(CC(C)(C)O)cn4)C3)nc21 [US20250171447, Ex-66]"
8.2 nM,,"COc1cccc2c1nc(N)n1nc([C@H]3C[C@H](c4ccc(C(C)(C)N)nc4)C3)nc21 [US20250171447, Ex-84]"
0.8 nM,2.7 nM,"COc1cccc2c1nc(N)n1nc(C3CC(c4ncc(C(C)(C)N)cc4Cl)C3)nc21 (centres undefined) [US20250171447, Ex-87]"
1.1 nM,,"COc1cccc2c1nc(N)n1nc([C@H]3C[C@H](c4ccc(C5(O)CC(F)(F)C5)cn4)C3)nc21 [US20250171447, Ex-103]"
3.1 nM,,"COc1cccc2c1nc(N)n1nc(C3CC(c4ccc(C5(C#N)CNC5)nc4)C3)nc21 (centres undefined) [US20250171447, Ex-116]"
52 nM,,"Cc1nc(C(C)(C)N)cnc1[C@H]1C[C@@H](c2nc3c4cccc(Cl)c4nc(N)n3n2)C1 [US20250171447, Ex-128]"
4.5 nM,,"Cc1nc(C(C)(C)N)cnc1[C@H]1C[C@H](c2nc3c4cc(F)cc(F)c4nc(N)n3n2)C1 [US20250171447, Ex-129]"
89.2 nM,,"Cc1nc(C(C)(C)N)cnc1[C@H]1C[C@@H](c2nc3c4cc(F)cc(F)c4nc(N)n3n2)C1 [US20250171447, Ex-130]"
2.5 nM,,"COc1cc2nc(N)n3nc([C@H]4C[C@H](c5ncc(C(C)(C)N)nc5C)C4)nc3c2cc1F [US20250171447, Ex-131]"
37.2 nM,,"COc1cc2nc(N)n3nc([C@H]4C[C@@H](c5ncc(C(C)(C)N)nc5C)C4)nc3c2cc1F [US20250171447, Ex-132]"
